Data: US7786081B2, “Peptide composition” (Pepsyn Ltd., priority 1993, dated 2010)

Tests used:
[1] = known agent, stated drawback; cited from earlier work
[2] = test system: Human keratinocytes (HatKat); experiment: Growth of keratinocytes (cell count, Coulter counter); assay type: cell-based
Experimental: Human keratinocytes (HatKat) were grown in keratinocyte growth medium (TCS Cellworks Ltd.) until 20% confluence. Then, in the same medium, the keratinocytes were grown for three days with 0.5% foetal calf serum (FCS), at which point the cells were counted in a Coulter® counter. The cell numbers obtained are set out in Table 3 below.

Compound | erythema at the site of application [1] | increase in the growth of keratinocytes ([2]; 10 ng/ml EGF vs medium with 0.5% FCS) | Number of cells ([2]; Medium with 0.5% FCS + 10 ng/ml EGF, three days, medium alone 23,777)
CC1=C(/C=C/C(C)=C/C=C/C(C)=C/C(=O)O)C(C)(C)CCC1 [all-trans retinoic acid] | produces marked erythema | – | –
EGF: epidermal growth factor, comparator in the keratinocyte growth test (NSDSECPLSHDGYCLHDGVCMYIEALDKYACNCVVGYIGERCQYRDLKWWELR; UniProt P01133 971-1023, looked up) | – | relatively modest increase | 29,356
